One data set concerns CD2-F1 mice. The experiment in a line: LD20 in the P388/0 test mice. Type of data set: in vivo, mouse (CD2-F1). Conditions: IP days 1, 5, 9, doses on a mg/kg basis. How it is done: (§1) CD2-F1 mice, of the same sex, weighing 20±3 g, are used for this test. Control and test animals are injected intraperitoneally with a suspension of ~10^6 viable P388/0 tumor cells on day 0. In each test, several dose levels which bracket the LD20 of the compound are evaluated; each dose level group contains six animals. The test compounds are prepared either in physiologic saline containing 0.05% Tween 80 or distilled water containing 5% dextrose and are administered intraperitoneally on days 1, 5, and 9 relative to tumor implant. Doses are on a mg/kg basis according to individual animals' body weights. The day of death for each animal is recorded, the median identified for each group and the ratios of median survival time for treated (T)/control (C) groups are calculated. The criterion for activity is T/C×100≥120%.
^A Values in parentheses are the highest nontoxic dose where the
LD20 was not determined.

Data set [1] deals with Streptococcus pyogenes (CN10). The data set is described as follows: Antibacterial test, Streptococcus pyogenes (agar dilution). Type of data set: cell-based. To be noted: agar dilution, CN10, read-out: MIC. The source says: (§2) Anitbacterial testing against […] (S3264) and Streptococcus pyogenes (CN10) was done with slight modifications using standard agar dilution assays as outlined in Manual of Clinical Microbiology Second Ed., E. H. Lennette. E. H. Spaulding and J. P. Traunt Eds., American Society for Microbiology, Washington, DC, 1974

Another data set relates to melanotic melanoma B16. The data set is described as follows: Melanotic Melanoma B16 test. Type of data set: in vivo, mouse (B6C3-F1). Conditions: median survival T/C; IP days 1, 5, 9; active if >125%; dose mg/kg: 1C 100, 6G 50, 3 70, 2 75, 18B 70.
Excerpt: Methods for evaluating the antitumor activity of these compounds are essentially those used in the Tumor Panel by the Developmental Therapeutics Program, Division of Cancer Treatment, National Cancer Institute, A. Goldin, et al., Methods in Cancer Research, Vol. XVI, p. 165, Academic Press (1979). Some modifications, in dose level and schedule have been made to increase the testing efficiency.
as §1
B6C3-F1 mice of the same sex, weighing 20±3 g, are used for this test. A suspension of B16 cells is prepared from a non-necrotic portion of solid tumor tissue obtained from a passage mouse. One gram of tumor is homogenized in 9 mL ice-cold Earle's salts solution and filtered through 1000 mesh screen to remove debris. 0.5 mL of the resulting brei is injected intraperitoneally into each animal. Dosing is carried out as in the P388/0 and L1210 tests. Days of death are recorded for a 60 day period and T/C ratio calculated as in the P388/0 and L1210 tests. The criterion for activity is T/C×100>125%.

Data set [2] has as its system Candida albicans (CN 1863). The experiment in a line: Candida albicans antifungal test. To be noted: Wellcotest sensitivity test agar plus 7% lysed horse blood, CN1863. It is filed as cell-based. The source says: Antifungal testing against Candida albicans (CN 1863) was done with slight modifications using a combination of broth and agar dilution assays as outlined in Laboratory Handbook of Medical Mycology, Chapter 6, pages 441-446, M. R. McGinnis, Academic Press, New York, NY, 1980
Medium: Wellcotest ® sensitivity test agar plus 7% lysed horse blood.

Another data set concerns Mycoplasma smegmatis. The data set is described as follows: Antibacterial test, Mycoplasma smegmatis (agar dilution). It is filed as cell-based.
Excerpt: as §2
For orientation: Agar dilution tests growth on a series of plates holding different concentrations.

The results in this text go back to patent US4719046A, “Crysene derivatives” (Burroughs Wellcome Co., priority 1984, dated 1988).

Molecules are shown by their SMILES. Where a name gives a salt, the structure may show the parent alone.

On to `C[C@H](O)[C@@](C)(CO)NCc1cc2c3ccccc3ccc2c2ccccc12` (relative stereo) [Example 6G, (+-)(2R*,3S*)-2-(6-Chrysenylmethylamino)-2-methyl-1,3-butanediol hydrochloride.1/3H2 O], for which the LD20 in the data set on CD2-F1 mice is listed as 53 mg/kg. In addition, the MIC (commonly the lowest concentration that inhibits growth of the organism) in data set [1] was 10 µg/mL; in data set [2], 100 µg/mL; in the data set on Mycoplasma smegmatis it was not above 3 µg/mL. In addition, the “T/C × 100% Excluding 60 day Survivors” value in the data set on melanotic melanoma B16 is recorded as “+160%”.
